Source: patent US10266544B2, “Aryl substituted aminomethyl spectinomycin analogs as antibacterial agents” (ST. JUDE CHILDREN'S RESEARCH HOSPITAL, INC., priority 2013, dated 2019)
Converted amounts (≈) assume the structure as drawn.

Key:
Assay type in all cases: cell-based
[1] = test system: Bacillus anthracis, Sterne 34F2; experiment: microbe, parasite or virus in culture; conditions: STERNE34F2, read-out: MIC B.a.
[2] = test system: Bacillus subtilis (ATCC 23857); experiment: MIC determination, microbroth dilution; conditions: ATCC23857; Bacillus subtilis (ATCC 23857); read-out: MIC B.s.
[3] = test system: Enterococcus faecalis (ATCC 33186); experiment: MIC determination, microbroth dilution; conditions: ATCC33186; Enterococcus faecalis (ATCC 33186); read-out: MIC E.f.
[4] = test system: Staphylococcus aureus (ATCC 29213); experiment: MIC determination, microbroth dilution; conditions: ATCC29213; Staphylococcus aureus (ATCC 29213); read-out: MIC S.a.
[5] = test system: MRSA, Staphylococcus aureus (NRS70); experiment: MIC determination, microbroth dilution; conditions: Staphylococcus aureus (NRS70); read-out: MIC MRSA
[6] = test system: Streptococcus pneumoniae (R6); experiment: MIC determination, microbroth dilution; conditions: Streptococcus pneumoniae (R6); read-out: MIC S. pn.
[7] = test system: Streptococcus pyogenes (ATCC 700294); experiment: MIC determination, microbroth dilution; conditions: ATCC700294; Streptococcus pyogenes (ATCC 700294); read-out: MIC S. py.
[8] = test system: M. tuberculosis clinical isolates; experiment: microbe, parasite or virus in culture; conditions: Mycobacterium tuberculosis, H37RV, read-out: MIC H37Rv

Row | Compound | MIC [1] [µg/mL] | MIC [2] [µg/mL] | MIC [3] [µg/mL] | MIC [4] [µg/mL] | MIC [5] [µg/mL] | MIC [6] [µg/mL] | MIC [7] [µg/mL] | MIC [8] [µg/mL]
1 | CN[C@@H]1[C@H](O)[C@H](NC)C2O[C@]3(O)C(OC2[C@H]1O)O[C@H](C)C[C@@]3(O)CNCc1ccc(CO)o1 (stereo partly shown) [compound 42] | > 200 | 50 (≈ 106 µM) | 200 (≈ 422 µM) | 200 (≈ 422 µM) | > 200 | 50 (≈ 106 µM) | 50 (≈ 106 µM) | 25 (≈ 52.8 µM)
2 | CN[C@@H]1[C@H](O)[C@H](NC)C2O[C@]3(O)C(OC2[C@H]1O)O[C@H](C)C[C@@]3(O)CNCc1ccc2ccn(C)c2c1 (stereo partly shown) [compound 43] | > 200 | 12.5 (≈ 24.7 µM) | 100 (≈ 197 µM) | 50 (≈ 98.7 µM) | 12.5 (≈ 24.7 µM) | 200 (≈ 395 µM) | 100 (≈ 197 µM) | 100 (≈ 197 µM)
3 | CN[C@@H]1[C@H](O)[C@H](NC)C2O[C@]3(O)C(OC2[C@H]1O)O[C@H](C)C[C@@]3(O)CNCc1ccc(Cc2ccccc2)cc1 (stereo partly shown) [compound 44] | > 200 | 25 (≈ 46 µM) | 25 (≈ 46 µM) | 50 (≈ 92 µM) | 25 (≈ 46 µM) | 6.25 (≈ 11.5 µM) | 3.13 (≈ 5.76 µM) | 100 (≈ 184 µM)
4 | CN[C@@H]1[C@H](O)[C@H](NC)C2O[C@]3(O)C(OC2[C@H]1O)O[C@H](C)C[C@@]3(O)CNCc1ccc(OC)c2c1CCCC2 (stereo partly shown) [compound 45] | > 200 | 50 (≈ 93 µM) | 50 (≈ 93 µM) | 100 (≈ 186 µM) | 200 (≈ 372 µM) | 25 (≈ 46.5 µM) | 25 (≈ 46.5 µM) | 200 (≈ 372 µM)
5 | CN[C@@H]1[C@H](O)[C@H](NC)C2O[C@]3(O)C(OC2[C@H]1O)O[C@H](C)C[C@@]3(O)CNCc1ccc(C)o1 (stereo partly shown) [compound 46] | > 200 | 50 (≈ 109 µM) | 100 (≈ 219 µM) | 50 (≈ 109 µM) | > 200 | 12.5 (≈ 27.3 µM) | 12.5 (≈ 27.3 µM) | 25 (≈ 54.6 µM)
6 | CN[C@@H]1[C@H](O)[C@H](NC)C2O[C@]3(O)C(OC2[C@H]1O)O[C@H](C)C[C@@]3(O)CNCCC(C)c1ccccc1 (stereo partly shown) [compound 47] | > 200 | 12.5 (≈ 25.2 µM) | 25 (≈ 50.4 µM) | 25 (≈ 50.4 µM) | 100 (≈ 202 µM) | 25 (≈ 50.4 µM) | 25 (≈ 50.4 µM) | 6.3 (≈ 12.7 µM)
7 | CN[C@@H]1[C@H](O)[C@H](NC)C2O[C@]3(O)C(OC2[C@H]1O)O[C@H](C)C[C@@]3(O)CNCc1cccn1C (stereo partly shown) [compound 48] | > 200 | 12.5 (≈ 27.4 µM) | > 200 | 200 (≈ 438 µM) | 200 (≈ 438 µM) | 100 (≈ 219 µM) | 200 (≈ 438 µM) | 200 (≈ 438 µM)
8 | CN[C@@H]1[C@H](O)[C@H](NC)C2O[C@]3(O)C(OC2[C@H]1O)O[C@H](C)C[C@@]3(O)CNCC(C)c1ccccc1 (stereo partly shown) [compound 49] | > 200 | 12.5 (≈ 26 µM) | 6.25 (≈ 13 µM) | 50 (≈ 104 µM) | 12.5 (≈ 26 µM) | 12.5 (≈ 26 µM) | 12.5 (≈ 26 µM) | 100 (≈ 208 µM)
